Measured values as given in patent US8759535B2, “Substituted fused imidazole derivatives, pharmaceutical compositions, and methods of use thereof” (High Point Pharmaceuticals, LLC, priority 2010, dated 2014).
Counter-ions that a name gives are not always drawn.

system: HMOX1; test: HMOX1 Protein Assay (immunostaining of HO-1 in NHLF cells, GE InCell 1000); type: cell-based; settings: Homo sapiens, fold change above DMSO treated cells, 3 μM compound (asterisk), 16 h
Procedure: Cell Culture. Normal Human Fibroblast (NHLF), were obtained from Lonza. Cultures of cells were maintained in Fibroblast Growth Medium (FGM-2) medium supplemented with 2% fetal bovine serum (FBS), Fibroblast Growth Factor (hFGF-B) 0.5 mL, Insulin 0.5 mL, gentamicin/amphotericin-B 0.5 mL at 37° C. in a humidified atmosphere of 5% CO2. Cells were grown to 80% confluence before treating.
HMOX1 Protein Assay. NHLF cells were grown to 80% confluency and harvested by washing once with HEPES and then trypsinized. Equal numbers (2×10^3 cells per well) of NHLF cells were plated in 384 well optilux tissue culture (BD) plates. Cells were incubated overnight in FGM-2 medium prior to exposure to compound. Cells were treated with either vehicle (DMSO) or compound (dissolved in vehicle) for 16 h. Cells were washed 2× with 1×PBS and fixed with 4% Paraformaldyhyde for 15 min. The fixed cells were then permeabalized with 0.1% Triton X-100 and blocked with 5% BSA in 1×PBS 0.05% Tween-20 for 15 min. HO-1 antibody (abcam) was used for immunostaining at 1:300 dilution in 1% BSA in 1×PBS for 1 hour. Cells were washed 2× with 1×PBS and secondary antibody goat anti-mouse Alexa 488 1:400 dilution (Invitrogen); Hoechst 1:2000 (Invitrogen) in 1% BSA in 1×PBS for 1 hour. Plate was washed 5× with 1×PBS and read at Hoechst Ex.360 […]; Alexa 488 Ex.480 Em. 535 using GE InCell 1000. Results analyzed using GE InCell Analyzer software. Heme oxygenase data represents the fold change above DMSO treated cells.
In general, the fold induction data are reported for 5 μM concentration (i.e., μ-moles of compound to total volume, where the solvent is about 99.2% media and 0.8% DMSO). In some instances, the reported data are for 3 μM concentration, which are indicated by an asterisk (*).

| SMILES | fold induction at 3 µM |
| --- | --- |
| Cn1c(Nc2nc3ccc(Cl)cc3s2)nc2cc(C(=O)NC[C@H]3CC[C@H](O)CC3)ccc21 [Example 233, 2-(6-Chloro-benzothiazol-2-ylamino)-1-methyl-1H-benzoimidazole-5-carboxylic acid (trans-4-hydroxy-cyclohexylmethyl)-amide] | 28 |
| CN1CCN(CCCNC(=O)c2ccc3c(c2)nc(Nc2nc4ccc(C(F)(F)F)cc4s2)n3C)CC1 [Example 357, 1-Methyl-2-(6-trifluoromethyl-benzothiazol-2-ylamino)-1H-benzoimidazole-5-carboxylic acid [3-(4-methyl-piperazin-1-yl)-propyl]-amide] | 22 |
| C[C@H](NC(=O)c1ccc2c(c1)nc(Nc1nc3ccc(Cl)cc3s1)n2C)C(=O)N1CCOCC1 [Example 465, 2-(6-Chloro-benzothiazol-2-ylamino)-1-methyl-1H-benzoimidazole-5-carboxylic acid ((S)-1-methyl-2-morpholin-4-yl-2-oxo-ethyl)-amide] | 20.4 |

same assay, conditions: Homo sapiens, fold change above DMSO treated cells, 5 μM compound, 16 h

| SMILES | fold induction at 5 µM |
| --- | --- |
| CN(C)CC(=O)N1CCC(CNC(=O)c2ccc3c(c2)nc(Nc2nc4ccc(Cl)cc4s2)n3C)CC1 [Example 314, 2-(6-Chloro-benzothiazol-2-ylamino)-1-methyl-1H-benzoimidazole-5-carboxylic acid [1-(2-dimethylamino-acetyl)-piperidin-4-ylmethyl]-amide] | 79.7 |
| Cn1c(Nc2nc3ccc(OC(F)(F)F)cc3s2)nc2cc(C(=O)NCC(F)(F)F)ccc21 [Example 16, 1-Methyl-2-(6-trifluoromethoxy-benzothiazol-2-ylamino)-1H-benzoimidazole-5-carboxylic acid (2,2,2-trifluoro-ethyl)-amide] | 30 |
| CCn1c(Nc2nc3ccc(OC(F)(F)F)cc3s2)nc2cc(C(=O)OC)ccc21 [Example 153, 1-Ethyl-2-(6-trifluoromethoxy-benzothiazol-2-ylamino)-1H-benzoimidazole-5-carboxylic acid methyl ester] | 4 |
| Cn1c(Nc2nc3ccc(OC(F)(F)F)cc3s2)nc2cc(C(=O)NCc3ccc(O)cc3)ccc21 [Example 230, 1-Methyl-2-(6-trifluoromethoxy-benzothiazol-2-ylamino)-1H-benzoimidazole-5-carboxylic acid 4-hydroxy-benzylamide] | 29.8 |
| CCn1c(Nc2nc3ccc(C(F)(F)F)cc3s2)nc2cc(C(=O)NCCOC)ccc21 [Example 182, 1-Ethyl-2-(6-trifluoromethyl-benzothiazol-2-ylamino)-1H-benzoimidazole-5-carboxylic acid (2-methoxy-ethyl)-amide] | 13 |
| COCCn1c(Nc2nc3ccc(Cl)cc3s2)nc2cc(C(=O)NCCN3CCNC(=O)C3)ccc21 [Example 332, 2-(6-Chloro-benzothiazol-2-ylamino)-1-(2-methoxy-ethyl)-1H-benzoimidazole-5-carboxylic acid [2-(3-oxo-piperazin-1-yl)-ethyl]-amide] | 55.9 |
| CN(C)C(=O)[C@H]1CC[C@H](NC(=O)c2ccc3c(c2)nc(Nc2nc4ccc(Cl)cc4s2)n3C)CC1 [Example 379, 2-(6-Chloro-benzothiazol-2-ylamino)-1-methyl-1H-benzoimidazole-5-carboxylic acid (4-trans-dimethylcarbamoyl-cyclohexyl)-amide] | 21.7 |
| Cn1c(Nc2nc3ccc(Cl)cc3s2)nc2cc(C(=O)N[C@@H]3CCCNC3)ccc21 [Example 309, 2-(6-Chloro-benzothiazol-2-ylamino)-1-methyl-1H-benzoimidazole-5-carboxylic acid (R)-piperidin-3-ylamide hydrochloride] | 21.5 |
| CC(=O)c1ccc2c(c1)nc(Nc1nc3ccc(OC(F)(F)F)cc3s1)n2C [Example 200, 1-[1-Methyl-2-(6-trifluoromethoxy-benzothiazol-2-ylamino)-1H-benzoimidazol-5-yl]-ethanone] | 22.9 |
| CCOCCNC(=O)c1ccc2c(c1)nc(Nc1nc3ccc(OC(F)(F)F)cc3s1)n2C [Example 4, 1-Methyl-2-(6-trifluoromethoxy-benzothiazol-2-ylamino)-1H-benzoimidazole-5-carboxylic acid (2-ethoxy-ethyl)-amide] | 11.9 |
| Cn1c(Nc2nc3ccc(OC(F)(F)F)cc3s2)nc2cc(C(=O)NCC(=O)NCc3ccc(O)cc3)ccc21 [Example 389, 1-Methyl-2-(6-trifluoromethoxy-benzothiazol-2-ylamino)-1H-benzoimidazole-5-carboxylic acid [(4-hydroxy-benzylcarbamoyl)-methyl]-amide] | 38.6 |
| Cn1c(Nc2nc3ccc(Cl)cc3s2)nc2cc(C(=O)NCC3CCN(CCO)CC3)ccc21 [Example 303, 2-(6-Chloro-benzothiazol-2-ylamino)-1-methyl-1H-benzoimidazole-5-carboxylic acid [1-(2-hydroxy-ethyl)-piperidin-4-ylmethyl]-amide] | 25.6 |
| CN(C)[C@H]1CCN(C(=O)CNC(=O)c2ccc3c(c2)nc(Nc2nc4ccc(OC(F)(F)F)cc4s2)n3C)C1 [Example 416, 1-Methyl-2-(6-trifluoromethoxy-benzothiazol-2-ylamino)-1H-benzoimidazole-5-carboxylic acid [2-((S)-3-dimethylamino-pyrrolidin-1-yl)-2-oxo-ethyl]-amide] | 96.6 |
| CCNC(=O)c1cc2nc(Nc3nc4ccc(OC(F)(F)F)cc4s3)n(C)c2cc1F [Example 42, 6-Fluoro-1-methyl-2-(6-trifluoromethoxy-benzothiazol-2-ylamino)-1H-benzoimidazole-5-carboxylic acid ethylamide] | 34.7 |
| Cn1c(Nc2nc3ccc(Cl)cc3s2)nc2cc(C(=O)O)ccc21 [Example 29, 2-(6-Chloro-benzothiazol-2-ylamino)-1-methyl-1H-benzoimidazole-5-carboxylic acid] | 13.9 |
| COCCn1c(Nc2nc3ccc(Cl)cc3s2)nc2cc(C(=O)NCC3CCN(CCO)CC3)ccc21 [Example 304, 2-(6-Chloro-benzothiazol-2-ylamino)-1-(2-methoxy-ethyl)-1H-benzoimidazole-5-carboxylic acid [1-(2-hydroxy-ethyl)-piperidin-4-ylmethyl]-amide] | 24.7 |
| Cn1c(Nc2nc3ccc(OC(F)(F)F)cc3s2)nc2cc(S(C)(=O)=O)ccc21 [Example 201, (5-Methanesulfonyl-1-methyl-1H-benzoimidazol-2-yl)-(6-trifluoromethoxy-benzothiazol-2-yl)-amine] | 26.5 |
| Cn1c(Nc2nc3ccc(OC(F)(F)F)cc3s2)nc2cc(C(=O)N[C@@H]3C[C@H](CO)[C@@H](O)[C@H]3O)ccc21 [Example 282, 1-Methyl-2-(6-trifluoromethoxy-benzothiazol-2-ylamino)-1H-benzoimidazole-5-carboxylic acid ((1R,2S,3R,4R)-2,3-dihydroxy-4-hydroxymethyl-cyclopentyl)-amide] | 51.7 |
| COC(=O)c1ccc2c(c1)nc(Nc1nc3ccc(OC(F)(F)F)cc3s1)n2C(C)C [Example 158, 1-Isopropyl-2-(6-trifluoromethoxy-benzothiazol-2-ylamino)-1H-benzoimidazole-5-carboxylic acid methyl ester] | 1.7 |
| CN(C)C(=O)[C@H](CO)NC(=O)c1ccc2c(c1)nc(Nc1nc3ccc(OC(F)(F)F)cc3s1)n2C [Example 368, 1-Methyl-2-(6-trifluoromethoxy-benzothiazol-2-ylamino)-1H-benzoimidazole-5-carboxylic acid ((S)-1-dimethylcarbamoyl-2-hydroxy-ethyl)-amide] | 48 |
| Cn1c(Nc2nc3ccc(OC(F)(F)F)cc3s2)nc2cc(C#N)ccc21 [Example 194, 1-Methyl-2-(6-trifluoromethoxy-benzothiazol-2-ylamino)-1H-benzoimidazole-5-carbonitrile] | 6 |
| Cn1c(Nc2nc3ccc(OC(F)(F)F)cc3s2)nc2cc(C(=O)NC3CCN(C(=O)OC(C)(C)C)CC3)ccc21 [Example 92, 4-{[1-Methyl-2-(6-trifluoromethoxy-benzothiazol-2-ylamino)-1H-benzoimidazole-5-carbonyl]-amino}-piperidine-1-carboxylic acid tert-butyl ester] | 3.4 |
| CCOCCNC(=O)c1ccc2c(c1)nc(Nc1nc3ccc(OC(F)(F)F)cc3s1)n2CC [Example 157, 1-Ethyl-2-(6-trifluoromethoxy-benzothiazol-2-ylamino)-1H-benzoimidazole-5-carboxylic acid (2-ethoxy-ethyl)-amide] | 22.1 |
| Cn1c(Nc2nc3ccc(OC(F)(F)F)cc3s2)nc2ccc(-c3nc[nH]n3)cc21 [Example 197, [1-Methyl-6-(1H-1,2,4-triazol-3-yl)-1H-benzimidazol-2-yl]-(6-trifluoromethoxy-benzothiazol-2-yl)-amine] | 18 |
